Assay results published in paper PMC4844575, “The influence of different metal-chelate conjugates of pentixafor on the CXCR4 affinity” (EJNMMI Research, 2016).
Where a SMILES comes first, the peptide text is derived from it. Side-chain parts run from the residue outwards. [ ]: non-standard residue; d: D form. The star is where a group is joined. DFO(CSNHC6H4NHCS) = CC(=O)N(O)CCCCCNC(=O)CCC(=O)N(O)CCCCCNC(=O)CCC(=O)N(O)CCCCCNC(=S)Nc1ccc(NC(=S)*)cc1; DOTAGA = O=C(O)CN1CCN(CC(=O)O)CCN(C(CCC(=O)*)C(=O)O)CCN(CC(=O)O)CC1; DOTA = O=C(O)CN1CCN(CC(=O)O)CCN(CC(=O)*)CCN(CC(=O)O)CC1; NODAGA = O=C(O)CN1CCN(CC(=O)O)CCN(C(CCC(=O)*)C(=O)O)CC1; X2 = O=C(O)CN1CCN(CC(=O)O)CCN(Cc2ccc(NC(=S)*)cc2)CC1; NOTA = O=C(O)CN1CCN(CC(=O)O)CCN(CC(=O)*)CC1; 2Nal = N[C@@H](Cc1ccc2ccccc2c1)C(=O)O; dNMeOrn = CN[C@H](CCCN)C(=O)O; 4Amb = NCc1ccc(C(=O)O)cc1

System: OH1 human small cell lung cancer tumor-bearing mice
Assay: not given
Conditions: mouse, in vivo, 1 h; cited from earlier work

Molecule	uptake in CXCR4-expressing tissue (tumor)
cyclo(-D-Tyr-N-Me-D-Orn(aminomethylbenzoyl (AMB)-DOTA)-L-Arg-L-2-Nal-Gly-) [[^68Ga]pentixafor]	6.16 % ± 1.16 % ID/g

Molecular target: T1, CXCR4 (Homo sapiens, UniProt P61073)
T1 construct: endogenous in cells; host or cells: Jurkat T-cell leukemia cells
T1 sequence (P61073 whole entry): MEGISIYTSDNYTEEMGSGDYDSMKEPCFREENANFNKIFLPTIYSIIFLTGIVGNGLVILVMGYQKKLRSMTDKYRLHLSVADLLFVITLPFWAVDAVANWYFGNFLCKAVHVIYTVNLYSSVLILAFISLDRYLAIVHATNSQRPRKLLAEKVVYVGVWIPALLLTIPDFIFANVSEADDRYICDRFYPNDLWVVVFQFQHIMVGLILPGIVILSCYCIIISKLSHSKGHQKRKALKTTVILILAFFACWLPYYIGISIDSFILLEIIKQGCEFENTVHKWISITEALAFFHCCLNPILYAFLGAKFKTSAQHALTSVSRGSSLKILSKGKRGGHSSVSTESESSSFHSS
Assay: competitive binding assay on Jurkat cells with [125I]FC131 as radioligand
Conditions: not given
Method: For in vitro experiments, the Jurkat T - cell line was used. […] The cell line was cultured at 37 °C in a humidified atmosphere with 5 % CO2 and passaged two to three times a week, depending on the cell count.
Jurkat cells (4 × 10^5 cells per vial) were incubated with the respective peptide of interest at the final concentrations ranging from 10^−11 to 10^−5 M and app. […] The total sample volume was 250 μL. After an incubation time of 120 min, the vials were centrifuged at 1300 rpm (Heraeus Megafuge, Thermo) for 3 min and the supernatant was removed. The cells were washed twice with 200 μL ice-cold Hank’s balanced salt solution (HBSS). After each washing step, the samples were centrifuged and the supernatant removed. Finally, the amount of displaced and bound radioligand in the combined fractions of the supernatant and the cell pellet was quantified. The half maximal inhibitory concentration (IC50) values were determined using GraphPad Prism software.

Molecule	IC50 [nM]
CN1C(=O)[C@@H](Cc2ccc(O)cc2)NC(=O)CNC(=O)[C@H](Cc2ccc3ccccc3c2)NC(=O)[C@H](CCCNC(=N)N)NC(=O)[C@H]1CCCNC(=O)c1ccc(CNC(=O)CCC(C(=O)O)N2CCN(CC(=O)O)CCN(CC(=O)O)CCN(CC(=O)O)CC2)cc1 (some centres unmarked) [Compound 2] (cyclo([2Nal]G[dY][dNMeOrn]([4Amb-DOTAGA])R))	654 ± 263
CN1C(=O)[C@@H](Cc2ccc(O)cc2)NC(=O)CNC(=O)[C@H](Cc2ccc3ccccc3c2)NC(=O)[C@H](CCCNC(=N)N)NC(=O)[C@H]1CCCNC(=O)c1ccc(CNC(=O)CN2CCN(CC(=O)O)CCN(CC(=O)O)CC2)cc1 [Compound 3] (cyclo([2Nal]G[dY][dNMeOrn]([4Amb-NOTA])R))	253 ± 49
CN1C(=O)[C@@H](Cc2ccc(O)cc2)NC(=O)CNC(=O)[C@H](Cc2ccc3ccccc3c2)NC(=O)[C@H](CCCNC(=N)N)NC(=O)[C@H]1CCCNC(=O)c1ccc(CNC(=O)CCC(C(=O)O)N2CCN(CC(=O)O)CCN(CC(=O)O)CC2)cc1 (some centres unmarked) [Compound 4] (cyclo([2Nal]G[dY][dNMeOrn]([4Amb-NODAGA])R))	275 ± 106
CN1C(=O)[C@@H](Cc2ccc(O)cc2)NC(=O)CNC(=O)[C@H](Cc2ccc3ccccc3c2)NC(=O)[C@H](CCCNC(=N)N)NC(=O)[C@H]1CCCNC(=S)Nc1ccc(CN2CCN(CC(=O)O)CCN(CC(=O)O)CC2)cc1 [Compound 5] (cyclo([2Nal]G[dY][dNMeOrn](X2)R))	115 ± 24
CN1C(=O)[C@@H](Cc2ccc(O)cc2)NC(=O)CNC(=O)[C@H](Cc2ccc3ccccc3c2)NC(=O)[C@H](CCCNC(=N)N)NC(=O)[C@H]1CCCNC(=O)c1ccc(CNC(=S)Nc2ccc(CC(CN(CCN(CC(=O)O)CC(=O)O)CC(=O)O)N(CC(=O)O)CC(=O)O)cc2)cc1 (some centres unmarked) [Compound 7]	200 ± 73
CC(=O)N(O)CCCCCNC(=O)CCC(=O)N(O)CCCCCNC(=O)CCC(=O)N(O)CCCCCNC(=S)Nc1ccc(NC(=S)NCc2ccc(C(=O)NCCC[C@@H]3C(=O)N[C@@H](CCCNC(=N)N)C(=O)N[C@@H](Cc4ccc5ccccc5c4)C(=O)NCC(=O)N[C@H](Cc4ccc(O)cc4)C(=O)N3C)cc2)cc1 [Compound 8] (cyclo([2Nal]G[dY][dNMeOrn]([4Amb-DFO(CSNHC6H4NHCS)])R))	105 ± 35

Same assay, conditions: Jurkat T-cells, 4 × 10^5 cells per vial, app. 0.1 nM [125I]FC131, 120 min incubation, mean ± SD (n = 3)

Molecule	IC50 [nM]
CN1C(=O)[C@@H](Cc2ccc(O)cc2)NC(=O)CNC(=O)[C@H](Cc2ccc3ccccc3c2)NC(=O)[C@H](CCCNC(=N)N)NC(=O)[C@H]1CCCNC(=O)c1ccc(CNC(=O)CN2CCN(CC(=O)O)CCN(CC(=O)O)CCN(CC(=O)O)CC2)cc1 [[^natBi^3+]1] [metal not drawn] (cyclo([dY][dNMeOrn]([4Amb-DOTA])R[2Nal]G))	22.1 ± 7
CN1C(=O)[C@@H](Cc2ccc(O)cc2)NC(=O)CNC(=O)[C@H](Cc2ccc3ccccc3c2)NC(=O)[C@H](CCCNC(=N)N)NC(=O)[C@H]1CCCNC(=O)c1ccc(CNC(=O)CCC(C(=O)O)N2CCN(CC(=O)O)CCN(CC(=O)O)CCN(CC(=O)O)CC2)cc1 (some centres unmarked) [[^natBi^3+]2] [metal not drawn] (cyclo([2Nal]G[dY][dNMeOrn]([4Amb-DOTAGA])R))	29.4 ± 7.6
CN1C(=O)[C@@H](Cc2ccc(O)cc2)NC(=O)CNC(=O)[C@H](Cc2ccc3ccccc3c2)NC(=O)[C@H](CCCNC(=N)N)NC(=O)[C@H]1CCCNC(=O)c1ccc(CNC(=O)CN2CCN(CC(=O)O)CCN(CC(=O)O)CCN(CC(=O)O)CC2)cc1 [[^natCu^2+]1] [metal not drawn] (cyclo([dY][dNMeOrn]([4Amb-DOTA])R[2Nal]G))	131 ± 11
CN1C(=O)[C@@H](Cc2ccc(O)cc2)NC(=O)CNC(=O)[C@H](Cc2ccc3ccccc3c2)NC(=O)[C@H](CCCNC(=N)N)NC(=O)[C@H]1CCCNC(=O)c1ccc(CNC(=O)CCC(C(=O)O)N2CCN(CC(=O)O)CCN(CC(=O)O)CCN(CC(=O)O)CC2)cc1 (some centres unmarked) [[^natCu^2+]2] [metal not drawn] (cyclo([2Nal]G[dY][dNMeOrn]([4Amb-DOTAGA])R))	1160 ± 220
CN1C(=O)[C@@H](Cc2ccc(O)cc2)NC(=O)CNC(=O)[C@H](Cc2ccc3ccccc3c2)NC(=O)[C@H](CCCNC(=N)N)NC(=O)[C@H]1CCCNC(=O)c1ccc(CNC(=O)CN2CCN(CC(=O)O)CCN(CC(=O)O)CC2)cc1 [[^natCu^2+]3] [metal not drawn] (cyclo([2Nal]G[dY][dNMeOrn]([4Amb-NOTA])R))	46.1 ± 26
CN1C(=O)[C@@H](Cc2ccc(O)cc2)NC(=O)CNC(=O)[C@H](Cc2ccc3ccccc3c2)NC(=O)[C@H](CCCNC(=N)N)NC(=O)[C@H]1CCCNC(=O)c1ccc(CNC(=O)CCC(C(=O)O)N2CCN(CC(=O)O)CCN(CC(=O)O)CC2)cc1 (some centres unmarked) [[^natCu^2+]4] [metal not drawn] (cyclo([2Nal]G[dY][dNMeOrn]([4Amb-NODAGA])R))	343 ± 10
CN1C(=O)[C@@H](Cc2ccc(O)cc2)NC(=O)CNC(=O)[C@H](Cc2ccc3ccccc3c2)NC(=O)[C@H](CCCNC(=N)N)NC(=O)[C@H]1CCCNC(=O)c1ccc(CNC(=O)CN2CCN(CC(=O)O)CCN(CC(=O)O)CC2)cc1 [[^natF]AlF-3] (cyclo([2Nal]G[dY][dNMeOrn]([4Amb-NOTA])R))	220 ± 57
CN1C(=O)[C@@H](Cc2ccc(O)cc2)NC(=O)CNC(=O)[C@H](Cc2ccc3ccccc3c2)NC(=O)[C@H](CCCNC(=N)N)NC(=O)[C@H]1CCCNC(=S)Nc1ccc(CN2CCN(CC(=O)O)CCN(CC(=O)O)CC2)cc1 [[^natF]AlF-5] (cyclo([2Nal]G[dY][dNMeOrn](X2)R))	329 ± 49
CN1C(=O)[C@@H](Cc2ccc(O)cc2)NC(=O)CNC(=O)[C@H](Cc2ccc3ccccc3c2)NC(=O)[C@H](CCCNC(=N)N)NC(=O)[C@H]1CCCNC(=O)c1ccc(CNC(=O)CCC(C(=O)O)N2CCN(CC(=O)O)CCN(CC(=O)O)CCN(CC(=O)O)CC2)cc1 (some centres unmarked) [[^natGa^3+]2] [metal not drawn] (cyclo([2Nal]G[dY][dNMeOrn]([4Amb-DOTAGA])R))	380 ± 102
CN1C(=O)[C@@H](Cc2ccc(O)cc2)NC(=O)CNC(=O)[C@H](Cc2ccc3ccccc3c2)NC(=O)[C@H](CCCNC(=N)N)NC(=O)[C@H]1CCCNC(=O)c1ccc(CNC(=O)CN2CCN(CC(=O)O)CCN(CC(=O)O)CC2)cc1 [[^natGa^3+]3] [metal not drawn] (cyclo([2Nal]G[dY][dNMeOrn]([4Amb-NOTA])R))	17.8 ± 7.7
CN1C(=O)[C@@H](Cc2ccc(O)cc2)NC(=O)CNC(=O)[C@H](Cc2ccc3ccccc3c2)NC(=O)[C@H](CCCNC(=N)N)NC(=O)[C@H]1CCCNC(=O)c1ccc(CNC(=O)CCC(C(=O)O)N2CCN(CC(=O)O)CCN(CC(=O)O)CC2)cc1 (some centres unmarked) [[^natGa^3+]4] [metal not drawn] (cyclo([2Nal]G[dY][dNMeOrn]([4Amb-NODAGA])R))	342 ± 72
CN1C(=O)[C@@H](Cc2ccc(O)cc2)NC(=O)CNC(=O)[C@H](Cc2ccc3ccccc3c2)NC(=O)[C@H](CCCNC(=N)N)NC(=O)[C@H]1CCCNC(=O)c1ccc(CNC(=O)CN2CCN(CC(=O)O)CCN(CC(=O)O)CCN(CC(=O)O)CC2)cc1 [[^natLu^3+]1] [metal not drawn] (cyclo([dY][dNMeOrn]([4Amb-DOTA])R[2Nal]G))	40.9 ± 12
CN1C(=O)[C@@H](Cc2ccc(O)cc2)NC(=O)CNC(=O)[C@H](Cc2ccc3ccccc3c2)NC(=O)[C@H](CCCNC(=N)N)NC(=O)[C@H]1CCCNC(=O)c1ccc(CNC(=O)CCC(C(=O)O)N2CCN(CC(=O)O)CCN(CC(=O)O)CCN(CC(=O)O)CC2)cc1 (some centres unmarked) [[^natLu^3+]2] [metal not drawn] (cyclo([2Nal]G[dY][dNMeOrn]([4Amb-DOTAGA])R))	188 ± 2.8
CN1C(=O)[C@@H](Cc2ccc(O)cc2)NC(=O)CNC(=O)[C@H](Cc2ccc3ccccc3c2)NC(=O)[C@H](CCCNC(=N)N)NC(=O)[C@H]1CCCNC(=O)c1ccc(CNC(=O)CCC(C(=O)O)N2CCN(CC(=O)O)CCN(CC(=O)O)CCN(CC(=O)O)CC2)cc1 (some centres unmarked) [[^natY^3+]2] [metal not drawn] (cyclo([2Nal]G[dY][dNMeOrn]([4Amb-DOTAGA])R))	126 ± 89
CC(=O)N(O)CCCCCNC(=O)CCC(=O)N(O)CCCCCNC(=O)CCC(=O)N(O)CCCCCNC(=S)Nc1ccc(NC(=S)NCc2ccc(C(=O)NCCC[C@@H]3C(=O)N[C@@H](CCCNC(=N)N)C(=O)N[C@@H](Cc4ccc5ccccc5c4)C(=O)NCC(=O)N[C@H](Cc4ccc(O)cc4)C(=O)N3C)cc2)cc1 [[^natZr^4+]8, metal not drawn] (cyclo([2Nal]G[dY][dNMeOrn]([4Amb-DFO(CSNHC6H4NHCS)])R))	148 ± 27

System: hCXCR4
Assay: not given
Conditions: read-out: affinity towards hCXCR4; cited from earlier work

Molecule	IC50 [nM]
cyclo(-D-Tyr-N-Me-D-Orn(aminomethylbenzoyl (AMB)-DOTA)-L-Arg-L-2-Nal-Gly-) [[^68Ga]pentixafor]	5
